Test results: PubChem BioAssay (NCI)
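Here, GI50 denotes the concentration required for 50% inhibition of growth. TGI denotes the concentration required for complete inhibition of growth.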

What was measured:
Test in all cases: DTP human tumour cell line panel, 384-well format
[1] = tested on: NCI-H322M lung
[2] = tested on: HOP-62 NSCLC
[3] = tested on: UACC-257 melanoma
[4] = tested on: SNB-75 CNS
[5] = tested on: COLO 205 colon
[6] = tested on: MCF7 breast
[7] = tested on: M14 melanoma
[8] = tested on: U251 glioblastoma
[9] = tested on: NCI-H460 NSCLC
[10] = tested on: HL-60(TB) leukemia
[11] = tested on: NCI-H23 lung
[12] = tested on: MALME-3M melanoma
[13] = tested on: MDA-MB-468 breast
[14] = tested on: NCI-H522 lung
[15] = tested on: RPMI-8226 leukemia
[16] = tested on: HCT-15 colon
[17] = tested on: CAKI-1 renal
[18] = tested on: HOP-92 NSCLC
[19] = tested on: KM12 colon
[20] = tested on: SW-620 colon
[21] = tested on: TK-10 renal
[22] = tested on: SF-268 CNS
[23] = tested on: OVCAR-4 ovarian
[24] = tested on: BT-549 breast
[25] = tested on: 786-0 renal
[26] = tested on: EKVX NSCLC
[27] = tested on: HT29 colon
[28] = tested on: SNB-19 CNS
[29] = tested on: SK-MEL-5 melanoma
[30] = tested on: CCRF-CEM leukemia
[31] = tested on: LOX IMVI melanoma
[32] = tested on: UO-31 renal
[33] = tested on: SN12C renal
[34] = tested on: IGROV1 ovarian
[35] = tested on: DU-145 prostate
[36] = tested on: OVCAR-8 ovarian
[37] = tested on: SK-MEL-28 melanoma
[38] = tested on: K-562 leukemia
[39] = tested on: A498 renal
[40] = tested on: SF-295 CNS
[41] = tested on: SK-OV-3 ovarian
[42] = tested on: PC-3 prostate
[43] = tested on: RXF 393 renal
[44] = tested on: SR leukemia
[45] = tested on: HS 578T breast
[46] = tested on: A549 NSCLC
[47] = tested on: OVCAR-3 ovarian
[48] = tested on: SF-539 CNS
[49] = tested on: OVCAR-5 ovarian
[50] = tested on: MDA-MB-231 breast
[51] = tested on: UACC-62 melanoma
[52] = tested on: ACHN renal
[53] = tested on: MOLT-4 leukemia
[54] = tested on: NCI-H226 lung
[55] = tested on: MDA-MB-435 melanoma
[56] = tested on: T-47D breast
[57] = tested on: NCI/ADR-RES ovarian
[58] = tested on: HCC-2998 colon

Cc1ccc(NC(=O)c2ccc(CN3CCN(C)CC3)cc2)cc1Nc1nc(-c2cccnc2)cs1
GI50 [1]: 3.39 µM | TGI [1]: 11.4 µM | GI50 [2]: 4.31 µM | TGI [2]: 15.4 µM | GI50 [3]: 1820 nM | TGI [3]: 3.37 µM | GI50 [4]: 3.7 µM | TGI [4]: 12 µM | GI50 [5]: 3.64 µM | TGI [5]: 11 µM | GI50 [6]: 1940 nM | TGI [6]: 5.95 µM | GI50 [7]: 2070 nM | TGI [7]: 4.11 µM | GI50 [8]: 2360 nM | TGI [8]: 5.39 µM | GI50 [9]: 2160 nM | TGI [9]: 4.71 µM | GI50 [10]: 1740 nM | TGI [10]: 3.16 µM | GI50 [11]: 2900 nM | TGI [11]: 11.9 µM | GI50 [12]: 1640 nM | TGI [12]: 3.16 µM | GI50 [13]: 1650 nM | TGI [13]: 3.77 µM | GI50 [14]: 3.83 µM | TGI [14]: 13.9 µM | GI50 [15]: 1420 nM | TGI [15]: 2780 nM | GI50 [16]: 1690 nM | TGI [16]: 3.2 µM | GI50 [17]: 3.9 µM | TGI [17]: 13 µM | GI50 [18]: 3.33 µM | TGI [18]: 12.2 µM | GI50 [19]: 3.11 µM | TGI [19]: 10.3 µM | GI50 [20]: 2170 nM | TGI [20]: 5.13 µM | GI50 [21]: 12.2 µM | TGI [21]: 24.7 µM | GI50 [22]: 4.08 µM | TGI [22]: 14 µM | GI50 [23]: 2590 nM | TGI [23]: 11.1 µM | GI50 [24]: 4.12 µM | TGI [24]: 14.4 µM | GI50 [25]: 1790 nM | TGI [25]: 3.66 µM | GI50 [26]: 4.22 µM | TGI [26]: 15.4 µM | GI50 [27]: 1720 nM | TGI [27]: 3.32 µM | GI50 [28]: 10.6 µM | TGI [28]: 22.5 µM | GI50 [29]: 1550 nM | TGI [29]: 3.15 µM | GI50 [30]: 1540 nM | TGI [30]: 3.09 µM | GI50 [31]: 1910 nM | TGI [31]: 3.52 µM | GI50 [32]: 5.43 µM | TGI [32]: 17.4 µM | GI50 [33]: 12.7 µM | TGI [33]: 25.3 µM | GI50 [34]: 11.2 µM | TGI [34]: 23.3 µM | GI50 [35]: 12 µM | TGI [35]: 24.4 µM | GI50 [36]: 3.54 µM | TGI [36]: 12.5 µM | GI50 [37]: 1910 nM | TGI [37]: 3.42 µM | GI50 [38]: 283 nM | TGI [38]: 1120 nM | GI50 [39]: 2420 nM | TGI [39]: 5.52 µM | GI50 [40]: 1840 nM | TGI [40]: 3.32 µM | GI50 [41]: 3.89 µM | TGI [41]: 12.3 µM | GI50 [42]: 3.25 µM | TGI [42]: 9.72 µM | GI50 [43]: 1540 nM | TGI [43]: 2980 nM | GI50 [44]: 1530 nM | TGI [44]: 2870 nM | GI50 [45]: 1730 nM | TGI [45]: 3.87 µM | GI50 [46]: 5.25 µM | TGI [46]: 17.3 µM | GI50 [47]: 2240 nM | TGI [47]: 5.16 µM | GI50 [48]: 1500 nM | TGI [48]: 3.19 µM | GI50 [49]: 3.4 µM | TGI [49]: 9.15 µM | GI50 [50]: 3.38 µM | TGI [50]: 11.7 µM | GI50 [51]: 1750 nM | TGI [51]: 3.64 µM | GI50 [52]: 3.31 µM | TGI [52]: 9.96 µM | GI50 [53]: 1550 nM | TGI [53]: 2950 nM | GI50 [54]: 3.84 µM | TGI [54]: 15.9 µM | GI50 [55]: 6.47 µM | TGI [55]: 18.9 µM | GI50 [56]: 1760 nM | TGI [56]: 5.2 µM | GI50 [57]: 5.47 µM | TGI [57]: 16.6 µM | GI50 [58]: 1840 nM | TGI [58]: 3.68 µM
